Source: the NIST ThermoML archive (doi:10.1016/j.jct.2011.08.016)
± gives the expanded uncertainty stated by the source.

Experiment: xn = mol fraction of the nth substance listed
Conditions: Liquid, Vibrating tube method

**Q.** Which results are given for CCCCCCCCCC [decane] + CCCCCCC?
**A.** mass density (313.16 K, 1000 kPa, x2 = 0.0531): 713.67 ± 0.41 kg/m3; mass density (313.16 K, 1000 kPa, x2 = 0.2594): 706.37 ± 0.41 kg/m3; mass density (313.16 K, 2000 kPa, x2 = 0.0531): 714.44 ± 0.41 kg/m3; mass density (313.16 K, 2000 kPa, x2 = 0.2594): 707.17 ± 0.42 kg/m3; mass density (313.16 K, 3000 kPa, x2 = 0.0531): 715.27 ± 0.42 kg/m3; mass density (313.16 K, 3000 kPa, x2 = 0.2594): 707.97 ± 0.42 kg/m3; mass density (313.16 K, 4000 kPa, x2 = 0.0531): 716.08 ± 0.42 kg/m3; mass density (313.16 K, 4000 kPa, x2 = 0.2594): 708.78 ± 0.43 kg/m3; mass density (313.16 K, 5000 kPa, x2 = 0.0531): 716.94 ± 0.43 kg/m3; mass density (313.16 K, 5000 kPa, x2 = 0.2594): 709.65 ± 0.43 kg/m3; mass density (313.16 K, 6000 kPa, x2 = 0.0531): 717.67 ± 0.43 kg/m3; mass density (313.16 K, 6000 kPa, x2 = 0.2594): 710.5 ± 0.44 kg/m3; mass density (313.16 K, 7000 kPa, x2 = 0.0531): 718.51 ± 0.44 kg/m3; mass density (313.16 K, 7000 kPa, x2 = 0.2594): 711.35 ± 0.44 kg/m3; mass density (313.16 K, 8000 kPa, x2 = 0.0531): 719.34 ± 0.44 kg/m3; mass density (313.16 K, 8000 kPa, x2 = 0.2594): 712.2 ± 0.44 kg/m3; mass density (313.16 K, 9000 kPa, x2 = 0.0531): 720.13 ± 0.44 kg/m3; mass density (313.16 K, 9000 kPa, x2 = 0.2594): 713.05 ± 0.45 kg/m3; mass density (313.16 K, 10000 kPa, x2 = 0.0531): 721 ± 0.45 kg/m3; mass density (313.16 K, 10000 kPa, x2 = 0.2594): 713.88 ± 0.45 kg/m3; mass density (313.16 K, 10990 kPa, x2 = 0.0531): 721.8 ± 0.45 kg/m3; mass density (313.16 K, 10990 kPa, x2 = 0.2594): 714.7 ± 0.46 kg/m3; mass density (313.16 K, 12000 kPa, x2 = 0.0531): 722.62 ± 0.46 kg/m3; mass density (313.16 K, 12000 kPa, x2 = 0.2594): 715.51 ± 0.47 kg/m3; mass density (313.16 K, 13000 kPa, x2 = 0.0531): 723.44 ± 0.46 kg/m3; mass density (313.16 K, 13000 kPa, x2 = 0.2594): 716.3 ± 0.47 kg/m3; mass density (313.16 K, 14000 kPa, x2 = 0.0531): 724.26 ± 0.47 kg/m3; mass density (313.16 K, 14000 kPa, x2 = 0.2594): 717.1 ± 0.48 kg/m3; mass density (313.16 K, 15000 kPa, x2 = 0.0531): 725.05 ± 0.47 kg/m3; mass density (313.16 K, 15000 kPa, x2 = 0.2594): 717.87 ± 0.48 kg/m3; mass density (313.16 K, 16000 kPa, x2 = 0.0531): 725.84 ± 0.48 kg/m3; mass density (313.16 K, 16000 kPa, x2 = 0.2594): 718.64 ± 0.49 kg/m3; mass density (313.16 K, 17000 kPa, x2 = 0.0531): 726.57 ± 0.49 kg/m3; mass density (313.16 K, 17000 kPa, x2 = 0.2594): 719.39 ± 0.49 kg/m3; mass density (313.16 K, 18000 kPa, x2 = 0.0531): 727.29 ± 0.49 kg/m3; mass density (313.16 K, 18000 kPa, x2 = 0.2594): 720.16 ± 0.5 kg/m3; mass density (313.16 K, 19000 kPa, x2 = 0.0531): 728.02 ± 0.5 kg/m3; mass density (313.16 K, 19000 kPa, x2 = 0.2594): 720.88 ± 0.5 kg/m3; mass density (313.16 K, 20000 kPa, x2 = 0.0531): 728.71 ± 0.5 kg/m3; mass density (313.16 K, 20000 kPa, x2 = 0.2594): 721.61 ± 0.51 kg/m3; mass density (313.16 K, 21000 kPa, x2 = 0.0531): 729.39 ± 0.51 kg/m3; mass density (313.16 K, 21000 kPa, x2 = 0.2594): 722.32 ± 0.52 kg/m3; mass density (313.16 K, 22000 kPa, x2 = 0.0531): 730.07 ± 0.51 kg/m3; mass density (313.16 K, 22000 kPa, x2 = 0.2594): 723.02 ± 0.52 kg/m3; mass density (313.16 K, 23000 kPa, x2 = 0.0531): 730.67 ± 0.52 kg/m3; mass density (313.16 K, 23000 kPa, x2 = 0.2594): 723.68 ± 0.53 kg/m3; mass density (313.16 K, 24000 kPa, x2 = 0.0531): 731.27 ± 0.53 kg/m3; mass density (313.16 K, 24000 kPa, x2 = 0.2594): 724.32 ± 0.54 kg/m3; mass density (313.16 K, 25000 kPa, x2 = 0.0531): 731.84 ± 0.53 kg/m3; mass density (313.16 K, 25000 kPa, x2 = 0.2594): 724.92 ± 0.54 kg/m3; mass density (313.17 K, 1000 kPa, x2 = 0.952): 671.13 ± 0.43 kg/m3; mass density (313.17 K, 2000 kPa, x2 = 0.952): 672.16 ± 0.44 kg/m3; mass density (313.17 K, 3000 kPa, x2 = 0.952): 673.18 ± 0.44 kg/m3; mass density (313.17 K, 4000 kPa, x2 = 0.952): 674.17 ± 0.45 kg/m3; mass density (313.17 K, 5000 kPa, x2 = 0.952): 675.18 ± 0.45 kg/m3; mass density (313.17 K, 6000 kPa, x2 = 0.952): 676.18 ± 0.46 kg/m3; mass density (313.17 K, 7000 kPa, x2 = 0.952): 677.15 ± 0.46 kg/m3; mass density (313.17 K, 8000 kPa, x2 = 0.952): 678.12 ± 0.47 kg/m3; mass density (313.17 K, 9000 kPa, x2 = 0.952): 679.08 ± 0.48 kg/m3; mass density (313.17 K, 10000 kPa, x2 = 0.952): 680.03 ± 0.48 kg/m3; mass density (313.17 K, 10990 kPa, x2 = 0.952): 680.95 ± 0.49 kg/m3; mass density (313.17 K, 12000 kPa, x2 = 0.952): 681.86 ± 0.5 kg/m3; mass density (313.17 K, 13000 kPa, x2 = 0.952): 682.77 ± 0.5 kg/m3; mass density (313.17 K, 14000 kPa, x2 = 0.952): 683.65 ± 0.51 kg/m3; mass density (313.17 K, 15000 kPa, x2 = 0.952): 684.52 ± 0.52 kg/m3; mass density (313.17 K, 16000 kPa, x2 = 0.952): 685.39 ± 0.52 kg/m3; mass density (313.17 K, 17000 kPa, x2 = 0.952): 686.24 ± 0.53 kg/m3; mass density (313.17 K, 18000 kPa, x2 = 0.952): 687.08 ± 0.54 kg/m3; mass density (313.17 K, 19000 kPa, x2 = 0.952): 687.9 ± 0.54 kg/m3; mass density (313.17 K, 20000 kPa, x2 = 0.952): 688.71 ± 0.55 kg/m3; mass density (313.17 K, 21000 kPa, x2 = 0.952): 689.52 ± 0.56 kg/m3; mass density (313.17 K, 22000 kPa, x2 = 0.952): 690.29 ± 0.57 kg/m3; mass density (313.17 K, 23000 kPa, x2 = 0.952): 691.05 ± 0.57 kg/m3; mass density (313.17 K, 24000 kPa, x2 = 0.952): 691.82 ± 0.58 kg/m3; mass density (313.17 K, 25000 kPa, x2 = 0.952): 692.57 ± 0.59 kg/m3; mass density (313.18 K, 1000 kPa, x2 = 0.5219): 695.19 ± 0.42 kg/m3; mass density (313.18 K, 1000 kPa, x2 = 0.777): 681.87 ± 0.43 kg/m3; mass density (313.18 K, 2000 kPa, x2 = 0.5219): 696.01 ± 0.42 kg/m3; mass density (313.18 K, 2000 kPa, x2 = 0.777): 682.77 ± 0.43 kg/m3; mass density (313.18 K, 3000 kPa, x2 = 0.5219): 696.84 ± 0.43 kg/m3; mass density (313.18 K, 3000 kPa, x2 = 0.777): 683.7 ± 0.43 kg/m3; mass density (313.18 K, 4000 kPa, x2 = 0.5219): 697.74 ± 0.43 kg/m3; mass density (313.18 K, 4000 kPa, x2 = 0.777): 684.64 ± 0.44 kg/m3; mass density (313.18 K, 5000 kPa, x2 = 0.5219): 698.6 ± 0.44 kg/m3; mass density (313.18 K, 5000 kPa, x2 = 0.777): 685.58 ± 0.45 kg/m3; mass density (313.18 K, 6000 kPa, x2 = 0.5219): 699.5 ± 0.44 kg/m3; mass density (313.18 K, 6000 kPa, x2 = 0.777): 686.52 ± 0.45 kg/m3; mass density (313.18 K, 7000 kPa, x2 = 0.5219): 700.44 ± 0.45 kg/m3; mass density (313.18 K, 7000 kPa, x2 = 0.777): 687.47 ± 0.46 kg/m3; mass density (313.18 K, 8000 kPa, x2 = 0.5219): 701.28 ± 0.45 kg/m3; mass density (313.18 K, 8000 kPa, x2 = 0.777): 688.4 ± 0.46 kg/m3; mass density (313.18 K, 9000 kPa, x2 = 0.5219): 702.17 ± 0.46 kg/m3; mass density (313.18 K, 9000 kPa, x2 = 0.777): 689.32 ± 0.47 kg/m3
